Measured values: ChEMBL document CHEMBL1201862, “PubChem BioAssay data set” (2004)
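Following 48 hours of exposure in 96-well plates, responses at five concentrations were used to interpolate endpoints linearly. Here, GI50 denotes the concentration required for 50% inhibition of growth.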 The source made the active and inactive calls. No stated cut-off is given here; in the data, active = GI50 up to about 1.1 µM and inactive = higher.

Columns and labels:
Assay in all cases: NCI tumour cell line growth inhibition, 48 h
A549 = test system: A549
UACC-62 = test system: UACC-62
OVCAR-3 = test system: OVCAR-3
COLO 205 = test system: COLO 205
SK-MEL-2 = test system: SK-MEL-2
Malme-3M = test system: Malme-3M
OVCAR-4 = test system: OVCAR-4
U-251 = test system: U-251
CAKI-1 = test system: CAKI-1
KM12 = test system: KM12
SNB-78 = test system: SNB-78
SW-620 = test system: SW-620
HT-29 = test system: HT-29
HCT-116 = test system: HCT-116
SF-539 = test system: SF-539

Measured: GI50

COc1ccc(C=C2C(=O)OC(C)(C)OC2=O)cc1OC
inactive: A549 > 100 µM | UACC-62 > 100 µM | OVCAR-3 > 100 µM | COLO 205 > 100 µM | SK-MEL-2 > 100 µM | Malme-3M > 100 µM | OVCAR-4 > 100 µM | U-251 > 100 µM | CAKI-1 > 100 µM | KM12 > 100 µM | SNB-78 > 100 µM | SW-620 > 100 µM | HT-29 > 100 µM

Cc1ccc(NC(=O)C(=O)Cc2nc3ccccc3o2)c(C)c1
inactive: HCT-116 > 100 µM | A549 > 100 µM | UACC-62 > 100 µM | SF-539 > 100 µM | OVCAR-3 > 100 µM | COLO 205 > 100 µM | SK-MEL-2 > 100 µM | Malme-3M > 100 µM | OVCAR-4 > 100 µM | U-251 > 100 µM | CAKI-1 > 100 µM | KM12 > 100 µM | SNB-78 > 100 µM | SW-620 > 100 µM | HT-29 > 100 µM

COc1ccc(/C=C/CN(C)CCc2ccccc2)cc1OC
inactive: HCT-116 26.4 µM | A549 > 100 µM | UACC-62 > 100 µM | OVCAR-3 73.3 µM | COLO 205 52 µM | SK-MEL-2 > 100 µM | Malme-3M 62.4 µM | U-251 86.9 µM | KM12 > 100 µM | SNB-78 > 100 µM | SW-620 97.3 µM | HT-29 33.5 µM

CNC(=O)CN(CC(N)=O)C(=O)NC
inactive: A549 > 100 µM | UACC-62 > 100 µM | SF-539 > 100 µM | OVCAR-3 > 100 µM | COLO 205 > 100 µM | SK-MEL-2 > 100 µM | Malme-3M > 100 µM | OVCAR-4 > 100 µM | U-251 > 100 µM | CAKI-1 > 100 µM | KM12 > 100 µM | SNB-78 > 100 µM | SW-620 > 100 µM | HT-29 > 100 µM

O=C(CCc1n[nH]c(=S)o1)Nc1cc(Cl)c(Cl)cc1Cl
inactive: HCT-116 15.9 µM | A549 67.8 µM | UACC-62 21.9 µM | SF-539 52.7 µM | OVCAR-3 41.8 µM | COLO 205 31.8 µM | Malme-3M > 100 µM | OVCAR-4 > 100 µM | U-251 35.2 µM | CAKI-1 27.2 µM | KM12 87.9 µM | SNB-78 > 100 µM | SW-620 12.9 µM | HT-29 25.8 µM

O=C1CCC2CCc3cccc4oc1c2c34 (stereo not drawn)
inactive: HCT-116 > 100 µM | A549 > 100 µM | UACC-62 > 100 µM | SF-539 > 100 µM | OVCAR-3 > 100 µM | COLO 205 > 100 µM | OVCAR-4 > 100 µM | U-251 > 100 µM | CAKI-1 > 100 µM | SNB-78 > 100 µM | SW-620 > 100 µM | HT-29 > 100 µM

C=C1C(C(=O)O)C1C(=O)O (stereo not drawn)
inactive: HCT-116 > 100 µM | A549 > 100 µM | UACC-62 > 100 µM | SF-539 > 100 µM | SK-MEL-2 > 100 µM | Malme-3M > 100 µM | OVCAR-4 > 100 µM | U-251 > 100 µM | CAKI-1 > 100 µM | KM12 > 100 µM | SNB-78 > 100 µM | SW-620 > 100 µM | HT-29 > 100 µM

CCOc1cc(/C=C/C=C/C=C/c2ccc(N(C)C)cc2)[s+]c2ccccc12
inactive: HCT-116 17.7 µM | A549 21 µM | UACC-62 27.8 µM | SF-539 18.2 µM | OVCAR-3 14.4 µM | COLO 205 41.1 µM | SK-MEL-2 37.3 µM | Malme-3M 22.9 µM | OVCAR-4 19.3 µM | U-251 31.8 µM | CAKI-1 26.5 µM | KM12 10.1 µM | SNB-78 22.5 µM | SW-620 30.3 µM | HT-29 28.7 µM

O=C(CN(c1ccccc1)c1ccccc1)n1nnc2ccccc21
inactive: HCT-116 24.3 µM | A549 28.6 µM | UACC-62 41.3 µM | SF-539 24.4 µM | OVCAR-3 44.6 µM | COLO 205 36.9 µM | SK-MEL-2 30.6 µM | Malme-3M 46.3 µM | U-251 26.1 µM | CAKI-1 53 µM | SNB-78 47.4 µM | SW-620 30 µM | HT-29 44.1 µM

O=C1NCCS(=O)(=O)N2CCC[C@@H]12
inactive: HCT-116 > 100 µM | A549 > 100 µM | UACC-62 > 100 µM | SF-539 > 100 µM | OVCAR-3 > 100 µM | COLO 205 > 100 µM | Malme-3M > 100 µM | OVCAR-4 > 100 µM | U-251 > 100 µM | CAKI-1 > 100 µM | KM12 > 100 µM | SNB-78 > 100 µM | SW-620 > 100 µM | HT-29 > 100 µM

COCCNC(=O)C1C(=O)C(=O)N(CCOC)C1=O (stereo not drawn)
inactive: HCT-116 > 100 µM | A549 > 100 µM | UACC-62 > 100 µM | SF-539 > 100 µM | OVCAR-3 > 100 µM | COLO 205 > 100 µM | SK-MEL-2 > 100 µM | Malme-3M > 100 µM | OVCAR-4 > 100 µM | U-251 > 100 µM | CAKI-1 > 100 µM | SNB-78 > 100 µM | SW-620 > 100 µM | HT-29 > 100 µM

CC(C)CC(NC(=O)OC(C)(C)C)C(=O)Nc1ccc(Nc2nc(F)nc(-c3c4ccccc4c4n3CCS4)n2)cc1 (stereo not drawn)
inactive: HCT-116 23.5 µM | A549 48.4 µM | UACC-62 17.2 µM | SF-539 20.6 µM | OVCAR-3 20.3 µM | COLO 205 18.9 µM | SK-MEL-2 18.2 µM | Malme-3M 21.2 µM | U-251 18.8 µM | CAKI-1 18.2 µM | KM12 26.7 µM | SNB-78 21.2 µM | SW-620 16.1 µM | HT-29 19.2 µM

O=C(O)CCSC(=O)Nc1cccc([N+](=O)[O-])c1
inactive: HCT-116 > 100 µM | A549 > 100 µM | SF-539 > 100 µM | OVCAR-3 > 100 µM | COLO 205 > 100 µM | SK-MEL-2 > 100 µM | OVCAR-4 60.8 µM | U-251 > 100 µM | CAKI-1 71.1 µM | KM12 > 100 µM | SNB-78 > 100 µM | SW-620 92.9 µM | HT-29 87.1 µM

CCOc1ccc([Se][Se]c2ccc(OCC)cc2)cc1
inactive: HCT-116 56.1 µM | A549 > 100 µM | UACC-62 95.7 µM | SF-539 > 100 µM | OVCAR-3 > 100 µM | COLO 205 > 100 µM | SK-MEL-2 > 100 µM | Malme-3M > 100 µM | OVCAR-4 > 100 µM | U-251 26.9 µM | CAKI-1 21 µM | KM12 > 100 µM | SNB-78 32.7 µM | SW-620 > 100 µM

COC(=O)C(CCCCCCCC(C(=O)OC)C1=Nc2nnc(N)n2C1=O)C1=Nc2nnc(N)n2C1=O (stereo not drawn)
inactive: HCT-116 > 100 µM | A549 > 100 µM | UACC-62 > 100 µM | SF-539 84.3 µM | OVCAR-3 > 100 µM | COLO 205 > 100 µM | SK-MEL-2 > 100 µM | Malme-3M > 100 µM | OVCAR-4 > 100 µM | U-251 > 100 µM | CAKI-1 11.2 µM | KM12 > 100 µM | SNB-78 > 100 µM | SW-620 > 100 µM | HT-29 > 100 µM

O=C(Nc1ccc(Cl)cc1)c1cccc([N+](=O)[O-])c1O
inactive: HCT-116 3.94 µM | A549 3.65 µM | UACC-62 1.85 µM | SF-539 4.18 µM | OVCAR-3 1.81 µM | COLO 205 2.91 µM | SK-MEL-2 2.02 µM | Malme-3M 1.37 µM | OVCAR-4 4.07 µM | U-251 2.7 µM | CAKI-1 3.19 µM | KM12 4.53 µM | SNB-78 4.27 µM | SW-620 4.81 µM | HT-29 4.25 µM

O=C(COc1ccccc1Cl)N1N=C(c2ccc(Cl)cc2)CC1(O)c1ccccc1 (stereo not drawn)
inactive: HCT-116 > 100 µM | A549 > 100 µM | UACC-62 > 100 µM | SF-539 > 100 µM | OVCAR-3 > 100 µM | COLO 205 > 100 µM | SK-MEL-2 > 100 µM | Malme-3M > 100 µM | OVCAR-4 > 100 µM | U-251 > 100 µM | CAKI-1 > 100 µM | KM12 > 100 µM | SNB-78 > 100 µM | SW-620 > 100 µM | HT-29 > 100 µM

COc1cc2c(Cc3cc(OCc4ccccc4)ccc3N)nccc2c(OC)c1OC
inactive: HCT-116 > 10 µM | A549 > 10 µM | UACC-62 > 10 µM | SF-539 > 10 µM | OVCAR-3 > 10 µM | COLO 205 > 10 µM | SK-MEL-2 > 10 µM | Malme-3M > 10 µM | U-251 > 10 µM | KM12 > 10 µM | SNB-78 > 10 µM | SW-620 > 10 µM | HT-29 > 10 µM

COc1ccc(C(=O)O/N=C2/CCCCC2CN(C)C)cc1 (stereo not drawn)
inactive: HCT-116 > 100 µM | A549 > 100 µM | UACC-62 > 100 µM | SF-539 > 100 µM | OVCAR-3 > 100 µM | COLO 205 > 100 µM | SK-MEL-2 > 100 µM | Malme-3M > 100 µM | OVCAR-4 > 100 µM | U-251 > 100 µM | CAKI-1 > 100 µM | KM12 > 100 µM | SNB-78 > 100 µM | SW-620 > 100 µM | HT-29 > 100 µM

CCCN(CCC)C(=O)Cc1c2n(c3ccccc13)CCCc1ccccc1-2
inactive: HCT-116 13.5 µM | A549 13.8 µM | UACC-62 11 µM | SF-539 14.9 µM | OVCAR-3 16 µM | COLO 205 15.5 µM | SK-MEL-2 13.1 µM | Malme-3M 13.9 µM | OVCAR-4 13.3 µM | U-251 15.7 µM | CAKI-1 14.8 µM | KM12 12.6 µM | SNB-78 12.3 µM | SW-620 16.6 µM | HT-29 13.2 µM
